Read-outs that look alike come from different tables or passages of the source.
What was measured:
CK1 ε = CK1 ε (Homo sapiens, UniProt P49674); assay: inhibition of CK1 ε by CK1 inhibitors; assay type: biochemical
Description: (§1) Suitable assays can use a peptide substrate and a readout method, for example using the Kinase-Glo assay (Promega, part # V672A).

DUX4 [1] = assay: DUX4 repression, high-content immunocytochemistry assay in primary FSHD myotubes; assay type: cell-based, human; conditions: for EC50: Homo sapiens, Myotube, read-out: EC50 DUX4
Description: A quantitative assay readout was developed based on script-based image analysis. […] To analyse the images, an automated script was developed, enabling the detection of nuclei, myotube borders and DUX4 signals, with the script also detecting artefacts to reduce false positive signals. The script enabled multiple validated readouts including the number of DUX4 positive nuclei and nuclei clusters, the fusion index, myotube area, myotube width and myotube skeleton length (see FIG. 2). Additionally, the total nuclei count was included as a measure of cell loss or compound toxicity.
A compound library containing approximately 5000 annotated compounds was screened in the high-content assay. For this purpose, primary myoblasts were seeded in 384 well plates after which the growth medium was replaced with differentiation medium. After 3 days of differentiation, cells were treated with library compounds (in duplicate on different screening plates) for 15 h, after which they were fixed and stained with antibodies against DUX4, antibodies against myosin heavy chain (MHC), and with DAPI (4′,6-diamidino-2-phenylindole). Script-based analysis provided readouts for DUX4 expression (count of DUX4-positive nuclei or DUX4 intensity) and for potential toxicity (fusion index and nuclei count).
Compounds were incubated with primary FSHD cells for 15 hours, as indicated by the arrow in FIG. 4A.
Compounds are administered either 15 h before fixation, resembling the original screening protocol, or 72 h before fixation (grey arrow). In the latter case, compounds are present during the whole differentiation process.

CK1 δ = CK1 δ (Homo sapiens, UniProt P48730); assay: inhibition of CK1 δ by CK1 inhibitors; assay type: biochemical
CK1 δ, sequence (P48730 whole entry): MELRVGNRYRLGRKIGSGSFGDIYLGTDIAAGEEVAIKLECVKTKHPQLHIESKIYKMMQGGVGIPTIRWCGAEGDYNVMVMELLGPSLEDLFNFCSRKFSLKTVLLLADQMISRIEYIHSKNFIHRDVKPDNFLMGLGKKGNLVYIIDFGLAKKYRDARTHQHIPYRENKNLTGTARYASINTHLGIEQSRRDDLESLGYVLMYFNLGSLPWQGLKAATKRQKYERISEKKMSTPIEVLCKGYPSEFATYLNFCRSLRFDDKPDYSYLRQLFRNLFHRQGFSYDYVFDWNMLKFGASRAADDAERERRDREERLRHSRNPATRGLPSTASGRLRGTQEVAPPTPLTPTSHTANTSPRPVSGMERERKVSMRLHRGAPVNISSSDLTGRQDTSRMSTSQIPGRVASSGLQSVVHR
Description: as §1

CK1 α = CK1 α (Homo sapiens, UniProt P48729); assay: inhibition of CK1 α by CK1 inhibitors; assay type: biochemical
CK1 α, sequence (P48729 whole entry): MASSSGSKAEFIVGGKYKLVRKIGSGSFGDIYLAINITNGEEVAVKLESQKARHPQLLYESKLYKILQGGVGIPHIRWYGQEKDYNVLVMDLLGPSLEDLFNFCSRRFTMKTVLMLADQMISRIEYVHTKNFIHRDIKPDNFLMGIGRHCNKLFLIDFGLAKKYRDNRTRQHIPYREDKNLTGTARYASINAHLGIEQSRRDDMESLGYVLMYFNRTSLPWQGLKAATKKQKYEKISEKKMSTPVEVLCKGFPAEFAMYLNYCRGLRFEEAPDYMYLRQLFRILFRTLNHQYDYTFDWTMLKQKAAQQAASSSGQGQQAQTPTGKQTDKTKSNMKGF
Description: IC50 values for CK1 can be determined using any method known in the art, for example as described in WO2011051858, WO2015119579, EP2949651, or US2005/0131012. Suitable assays can use a peptide substrate and a readout method, for example using the Kinase-Glo assay (Promega, part # V672A).

p38 = p38 (Homo sapiens, UniProt Q16539); assay: inhibition of p38 by CK1 inhibitors; assay type: biochemical; conditions: p38α
p38, sequence (Q16539 whole entry): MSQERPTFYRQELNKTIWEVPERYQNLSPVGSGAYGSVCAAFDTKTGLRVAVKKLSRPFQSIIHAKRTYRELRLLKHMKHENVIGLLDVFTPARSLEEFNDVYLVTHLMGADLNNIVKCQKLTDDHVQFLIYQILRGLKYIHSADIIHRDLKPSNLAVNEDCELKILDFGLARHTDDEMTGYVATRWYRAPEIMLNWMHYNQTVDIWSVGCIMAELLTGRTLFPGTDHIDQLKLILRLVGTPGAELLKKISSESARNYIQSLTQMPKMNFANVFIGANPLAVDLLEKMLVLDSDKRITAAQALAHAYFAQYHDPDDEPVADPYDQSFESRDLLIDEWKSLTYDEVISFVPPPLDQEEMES

pancreatic tumor cell = conditions: in vitro and in vivo; cited from earlier work
DUX4 [2] = conditions: immortalised differentiated myotube cultures; cited from earlier work
[3] = primary FSHD cells, compound incubation 15 hours

CK1 ε, sequence (P49674 whole entry): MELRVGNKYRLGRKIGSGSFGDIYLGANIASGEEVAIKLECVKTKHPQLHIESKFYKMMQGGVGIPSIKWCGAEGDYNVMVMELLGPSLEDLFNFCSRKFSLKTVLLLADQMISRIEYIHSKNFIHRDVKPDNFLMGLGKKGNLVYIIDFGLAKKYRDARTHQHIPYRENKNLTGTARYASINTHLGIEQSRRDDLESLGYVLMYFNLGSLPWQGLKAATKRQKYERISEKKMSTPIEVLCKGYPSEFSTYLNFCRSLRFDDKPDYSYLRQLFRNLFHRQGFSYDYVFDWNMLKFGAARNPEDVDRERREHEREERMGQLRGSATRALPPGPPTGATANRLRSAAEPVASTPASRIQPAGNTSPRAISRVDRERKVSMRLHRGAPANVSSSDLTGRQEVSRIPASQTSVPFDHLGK

| IC50 (CK1 ε) [nM] | EC50 (DUX4 [1]; [3]) [nM] | IC50 (CK1 δ) [nM] | IC50 (CK1 α) [nM] | IC50 (p38) [nM] | SMILES | pancreatic tumor cell growth (pancreatic tumor cell) | EC50 (DUX4 [1]; 15 h) [nM] | effect on DUX4 expression (DUX4 [1]; irrespective of treatment time (15 h or 72 h)) | expression of DUX4 (DUX4 [2]) |
| --- | --- | --- | --- | --- | --- | --- | --- | --- | --- |
| 12 | 50 | 19 | 30 | 13 | CC1(C)CN(c2ccc3nc(-c4ccc(F)cc4)c(-c4ccncc4)n3n2)CCN1 [Compound A] | – | – | – | – |
| 72 | 2590 | 18 | 561 | 677 | Cn1cc(-c2ccnc3c2C(=O)N(C2CCOCC2)C3)c(-c2ccc(F)cc2)n1 [Compound F] | – | – | – | – |
| – | – | – | – | – | COc1cc(OC)c(C=C2C(O)=Nc3ccccc32)c(OC)c1 [IC261] | reduces pancreatic tumor cell growth | – | – | – |
| 16 | 10 | 22 | 33 | 25 | Fc1ccc(-c2nc3ccc(N4CCNCC4)nn3c2-c2ccncc2)cc1 [Compound H] | – | – | – | – |
| – | – | – | – | – | COc1cc(OC)c2c(=O)[nH]c(-c3cc(C)c(OCCO)c(C)c3)nc2c1 [RVX-208, reference compound] | – | – | did not show any effect on DUX4 expression | can inhibit the expression of DUX4 |
| 51.6 | 1410 | 33.1 | 644 | 569 | Cn1cc(-c2ccnc3c2C(=O)OC3)c(-c2ccc(F)cc2)n1 [Compound D] | – | – | – | – |
| 27 | 820 | 20 | 123 | 74 | Nc1nccc(-c2c(-c3ccc(F)cc3)ncn2C2CCN(Cc3ccon3)CC2)n1 [PF-5006739, reference compound] | – | – | – | – |
| – | 470 | – | 320 | 32 | Nc1nccc(-c2c(-c3ccc(F)cc3)ncn2C2CCCCC2)n1 [PF-670462, reference compound] | – | – | – | – |

| SMILES | IC50 (CK1 ε) [nM] | EC50 (DUX4 [1]; [3]) [nM] | IC50 (CK1 δ) [nM] | IC50 (CK1 α) [nM] | IC50 (p38) [nM] | pancreatic tumor cell growth (pancreatic tumor cell) | EC50 (DUX4 [1]; 15 h) [nM] | effect on DUX4 expression (DUX4 [1]; irrespective of treatment time (15 h or 72 h)) | expression of DUX4 (DUX4 [2]) |
| --- | --- | --- | --- | --- | --- | --- | --- | --- | --- |
| CN1Cc2nccc(-c3cn(C)nc3-c3ccc(F)cc3)c2C1=O [Compound E] | – | – | – | 592 | 1110 | – | 1890 | – | – |
| Fc1cccc(-n2cnc3c(NCc4nc5ccc(F)c(F)c5[nH]4)nc(N4CCOCC4)nc32)c1 [SR-3029, reference compound] | – | – | – | > 10000 | > 10000 | – | 50 | – | – |
